Data on two molecules can be found in patent US10570184B2, “GLP-1/glucagon receptor co-agonists for medical use” (Novo Nordisk A/S, priority 2014, dated 2020).

Structures are written as SMILES. Starred links: 1 amine or outer side, 2 acyl side, 3 side chain; linkers in the order of their positions; H or OH if unused. Non-standard residues stand in square brackets, D forms with d. Residues, ends and D or L forms follow the SMILES beside them. Groups on a side chain read outwards from the residue. *: point of attachment. C18 diacid = O=C(O)CCCCCCCCCCCCCCCCC(=O)*; γGlu = O=C(O)[C@H](CCC(=O)[*:2])N[*:1]; AEEA = NCCOCCOCC(=O)O; Aib = CC(C)(N)C(=O)O

For orientation: EC50 means the concentration needed to bring the measured effect to its halfway point.

Data set [1] can be described thus: Assay (III) ThT fibrillation assay for physical stability. In kind it is physicochemical. To be noted: 250 μM in 10 mM HEPES buffer, 37° C., shaking 960 rpm. The text has this: The purpose of this assay is to assess the physical stability of the glucagon derivatives of the invention in aqueous solutions. Low physical stability of a peptide may lead to amyloid fibril formation, which is observed as well-ordered, thread-like macromolecular structures in the sample, which eventually may lead to gel formation. This has traditionally been measured by visual inspection of the sample. However, that kind of measurement is very subjective and depending on the observer. Therefore, the application of a small molecule indicator probe is much more advantageous. Thioflavin T (ThT) is such a probe and has a distinct fluorescence signature when binding to fibrils [Naiki et al. (1989) Anal. Biochem. 177, 244-249; LeVine (1999) Methods. Enzymol. 309, 274-284]. […] The constant t0 is the time needed to reach 50% of maximum fluorescence. The two important parameters describing fibril formation are the lag-time calculated by t0−2τ and the apparent rate constant kapp 1/τ. Samples were prepared freshly before each assay. Each sample composition is described in the legends. The pH of the sample was adjusted to the desired value using appropriate amounts of concentrated NaOH and HCl. Thioflavin T was added to the samples from a stock solution in H2O to a final concentration of 1 μM. Sample aliquots of 200 μl (250 μM of the glucagon derivative in 10 mM HEPES buffer, pH 7.5) were placed in a 96 well microtiter plate (Packard OptiPlate™-96, white polystyrene). Usually, four or eight replica of each sample (corresponding to one test condition) were placed in one column of wells. The plate was sealed with Scotch Pad (Qiagen). Incubation at given temperature, shaking and measurement of the ThT fluorescence emission were done in a Fluoroskan Ascent FL fluorescence platereader (Thermo Labsystems). The temperature was adjusted to 37° C. The plate was incubated with orbital shaking adjusted to 960 rpm with an amplitude of 1 mm. Fluorescence measurement was done using excitation through a 444 nm filter and measurement of emission through a 485 nm filter. Each run was initiated by incubating the plate at the assay temperature for 10 min. The plate was measured every 20 minutes for a desired period of time. Between each measurement, the plate was shaken and heated as described. After completion of the ThT assay the four or eight replica of each sample was pooled and centrifuged at 20000 rpm for 30 minutes at 18° C. The supernatant was filtered through a 0.22 μm filter and an aliquot was transferred to a HPLC vial. The concentration of peptide in the initial sample and in the filtered supernatant was determined by reverse phase HPLC using an appropriate standard as reference. The percentage fraction the concentration of the filtered sample constituted of the initial sample concentration was reported as the recovery. The measurement points were saved in Microsoft Excel format for further processing and curve drawing and fitting was performed using GraphPad Prism. The background emission from ThT in the absence of fibrils was negligible. The data points are typically a mean of four or eight samples and shown with standard deviation error bars. Only data obtained in the same experiment (i.e. samples on the same plate) are presented in the same graph ensuring a relative measure of fibrillation between experiments. The data set may be fitted to Eq. (1).

For data set [2], the target named is T1, human GLP-1 receptor (Homo sapiens, UniProt P43220).
T1 construct: expressed in transfected cells; host or cells: membranes of BHK cells (parent BHKTS13), clone FCW467-12A
Briefly: Assay (I)(a) GLP-1 receptor activation, CRE luciferase reporter gene assay in BHK cells. It is filed as cell-based. The note with it: without presence of serum albumin; read-out: GLP-1R EC50 (pM) [Assay (I)(a)]. A digest of the protocol: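 Stable BHK clone expressing human GLP-1 receptor with CRE-driven firefly luciferase, 5×10EE3 cells/well in medium with 2% ovalbumin and 0.2% Pluronic F-68. Compounds at 1×10EE-13 to 1×10EE-6 M final, 3 h at 37° C.; luminescence read, EC50 (pM) from four-parameter fit.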
(In general: A reporter such as luciferase makes a cellular process visible.)

The target in data set [3] is T2, human glucagon receptor (Homo sapiens, UniProt P47871).
T2 construct: expressed in transfected cells; host or cells: membranes of BHK cells, clone BHK hGCGR A3*25
Briefly: Assay (I)(b) glucagon receptor activation, CRE luciferase reporter gene assay in BHK cells. In kind it is cell-based. The note with it: without presence of serum albumin; read-out: GlucagonR EC50 (pM), [Assay (I)(b)]. The procedure:
The purpose of this example was to test the activity or potency, of the glucagon derivatives of the invention, in vitro. The in vitro potency is the measure of human GLP-1 receptor (GLP-1R) or glucagon receptor (glucagonR) activation, respectively, in a whole cell assay. In vitro potency was determined by measuring the response of human GLP-1 or glucagon receptor, respectively, in a reporter gene assay. The assay was performed in a stably transfected BHK cell line that expresses either the human GLP-1 receptor or the human glucagon receptor and contains the DNA for the cAMP response element (CRE) coupled to a promoter and the gene for firefly luciferase (CRE luciferase). […] When assay incubation was completed, the luciferase substrate (luciferin) was added and the enzyme converted luciferin to oxyluciferin and produces bioluminescence. The luminescence was measured as the readout for the assay. The cells used in this assay (clone pLJ6′-4-25) were BHK cells with BHK570 as a parent cell line expressing the CRE luciferase gene (clone BHK/KZ10-20-48) and were established by further transfection with the human glucagon receptor (clone pLJ6′ in pHZ-1 vector). The cells were cultured at 5% CO2 in DMEM medium with 10% FBS, 1×GlutaMAX, 1 mg/ml G418, 240 nM MTX (methotrexate) and 1% pen/strep (penicillin/streptomycin). They were aliquoted and stored in liquid nitrogen. Before each assay, an aliquot was taken up and washed three times in PBS before being suspended at the desired concentration in assay medium. For 96-well plates the suspension was made to give a final concentration of 5×10EE3 cells/well. The following chemicals were used in the assay: Pluronic F-68 (10%) (Gibco 2404), ovalbumin (Sigma A5503), DMEM w/o phenol red (Gibco 11880-028), 1 M Hepes (Gibco 15630), Glutamax 100× (Gibco 35050) and steadylite plus (PerkinElmer 6016757). Assay Medium consisted of DMEM w/o phenol red, 10 mM Hepes, 1× GlutaMAX, 2% Ovalbumin and 0.2% Pluronic F-68. Cell stocks were thawed in a 37° C. water bath. Cells were washed three times in PBS. The cells were counted and adjusted to 5×10EE3 cells/50 μl (1×10EE5 cells/ml) in Assay Medium. A 50 μl aliquot of cells was transferred to each well in the assay plate. Stocks of the test compounds and reference compounds were diluted to a concentration of […] in Assay Medium. Compounds were diluted 10-fold to give the following concentrations: 2×10EE-6 M, 2×10EE-7 M, 2×10EE-8 M; 2×10EE-9 M, 2×10EE-10 M, 2×10EE-11 M, 2×10EE-12 M and 2×10EE-13 M. For each compound a blank assay medium control was also included. A 50 μl aliquot of compound or blank was transferred from the dilution plate to the assay plate. Compounds were tested at the following final concentrations: 1×10EE-6 M, 1×10EE-7 M, 1×10EE-8 M; 1×10EE-9 M, 1×10EE-10 M, 1×10EE-11 M and 1×10EE-12 M and 1×10EE-13 M. The assay plate was incubated for 3 h in a 5% CO2 incubator at 37° C. The assay plate was removed from the incubator and allowed to stand at room temperature for 15 min. A 100 μl aliquot of steadylite plus reagent was added to each well of the assay plate (reagent is light sensitive). Each assay plate was covered with aluminum foil to protect it from light and shaken for 30 min at room temperature. Each assay plate was read in a Perkin Elmer TopCount NXT instrument. The data from the TopCount instrument was transferred to GraphPad Prism software. The software performed a non-linear regression (log(agonist) vs response-Variable slope (four parameter)). EC50 values were calculated by the software and reported in pM.

T1 sequence (P43220 24-463): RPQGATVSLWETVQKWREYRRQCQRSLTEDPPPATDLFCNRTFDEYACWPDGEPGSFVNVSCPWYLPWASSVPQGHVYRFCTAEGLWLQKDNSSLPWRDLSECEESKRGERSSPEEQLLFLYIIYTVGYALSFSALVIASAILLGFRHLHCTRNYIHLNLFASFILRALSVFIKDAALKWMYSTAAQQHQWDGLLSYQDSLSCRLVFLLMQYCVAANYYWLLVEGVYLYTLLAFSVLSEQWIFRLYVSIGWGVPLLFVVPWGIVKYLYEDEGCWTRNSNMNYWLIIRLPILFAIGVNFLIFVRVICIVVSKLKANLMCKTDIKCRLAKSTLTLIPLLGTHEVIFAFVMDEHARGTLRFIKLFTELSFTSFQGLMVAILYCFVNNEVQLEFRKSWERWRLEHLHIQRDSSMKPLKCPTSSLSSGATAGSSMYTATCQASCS
T2 sequence (P47871 26-477): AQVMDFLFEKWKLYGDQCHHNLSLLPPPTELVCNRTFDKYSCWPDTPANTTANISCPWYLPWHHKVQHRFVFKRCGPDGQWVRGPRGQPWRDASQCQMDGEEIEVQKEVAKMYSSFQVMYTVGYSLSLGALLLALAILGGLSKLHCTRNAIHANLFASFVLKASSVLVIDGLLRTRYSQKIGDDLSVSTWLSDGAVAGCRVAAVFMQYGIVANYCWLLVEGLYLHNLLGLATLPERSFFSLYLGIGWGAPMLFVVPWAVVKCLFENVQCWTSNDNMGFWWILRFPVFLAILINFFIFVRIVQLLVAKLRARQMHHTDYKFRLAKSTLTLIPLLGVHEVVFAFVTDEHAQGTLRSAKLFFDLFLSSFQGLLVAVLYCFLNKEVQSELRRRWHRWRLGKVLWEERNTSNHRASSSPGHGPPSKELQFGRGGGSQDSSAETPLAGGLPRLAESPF

With `CC[C@H](C)[C@H](NC(=O)[C@H](CC(C)C)NC(=O)[C@H](Cc1c[nH]c2ccccc12)NC(=O)[C@H](C)NC(=O)[C@@H](NC(=O)[C@H](Cc1ccccc1)NC(=O)[C@H](CC(=O)O)NC(=O)[C@H](CCCNC(=N)N)NC(=O)[C@H](C)NC(=O)[C@H](CCCNC(=N)N)NC(=O)[C@H](CCCNC(=N)N)NC(=O)[C@H](CC(C)C)NC(=O)[C@H](CC(=O)O)NC(=O)[C@H](CC(C)C)NC(=O)[C@H](Cc1ccc(O)cc1)NC(=O)[C@H](CCCCN)NC(=O)[C@H](CO)NC(=O)[C@H](Cc1ccc(O)cc1)NC(=O)[C@H](CC(=O)O)NC(=O)[C@H](CO)NC(=O)[C@@H](NC(=O)[C@H](Cc1ccccc1)NC(=O)[C@@H](NC(=O)CNC(=O)[C@H](CCC(N)=O)NC(=O)C(C)(C)NC(=O)[C@@H](N)Cc1c[nH]cn1)[C@@H](C)O)[C@@H](C)O)C(C)C)C(=O)N[C@@H](CCCCNC(=O)CC[C@H](NC(=O)CC[C@H](NC(=O)COCCOCCNC(=O)COCCOCCNC(=O)CC[C@H](NC(=O)CCCCCCCCCCCCCCCCC(=O)O)C(=O)O)C(=O)O)C(=O)O)C(=O)N[C@H](C(N)=O)[C@@H](C)O` [Chem. 33, N^ε28-[(4S)-4-carboxy-4-[[(4S)-4-carboxy-4-[[2-[2-[2-[[2-[2-[2-[[(4S)-4-carboxy-4-(17-carboxyheptadecanoylamino)butanoyl]amino]ethoxy]ethoxy]acetyl]amino]ethoxy]ethoxy]acetyl]amino]butanoyl]amino]butanoyl]-[Aib2,Leu16,Arg20,Ala24,Ile27,Lys28]-Glucagon amide] (H-H[Aib]QGTFTSDYSKYLDLRRARDFVAWLIK([γGlu-γGlu-AEEA-AEEA-γGlu-C18 diacid])T-NH2), the “ThT Assay Lag time (h) [Assay (III), pH 7.5]” value in data set [1] turned out to be 45.0 h. In data set [2], the half-maximal effective concentration (EC50) was found to be 7 pM.
Regarding `CC[C@H](C)[C@H](NC(=O)[C@H](CC(C)C)NC(=O)[C@H](Cc1c[nH]c2ccccc12)NC(=O)[C@H](CCC(N)=O)NC(=O)[C@@H](NC(=O)[C@H](Cc1ccccc1)NC(=O)[C@H](CC(=O)O)NC(=O)[C@H](CCCNC(=N)N)NC(=O)[C@H](C)NC(=O)[C@H](CCCNC(=N)N)NC(=O)[C@H](CCCNC(=N)N)NC(=O)[C@H](C)NC(=O)[C@H](CC(=O)O)NC(=O)[C@H](CC(C)C)NC(=O)[C@H](Cc1ccc(O)cc1)NC(=O)[C@H](CCCCN)NC(=O)[C@H](CO)NC(=O)[C@H](CC(C)C)NC(=O)[C@H](CC(=O)O)NC(=O)[C@H](CO)NC(=O)[C@@H](NC(=O)[C@H](Cc1ccccc1)NC(=O)[C@@H](NC(=O)CNC(=O)[C@H](CCC(N)=O)NC(=O)C(C)(C)NC(=O)[C@@H](N)Cc1c[nH]cn1)[C@@H](C)O)[C@@H](C)O)C(C)C)C(=O)N[C@@H](CCCCNC(=O)CC[C@H](NC(=O)CC[C@H](NC(=O)CC[C@H](NC(=O)CCCCCCCCCCCCCCCCC(=O)O)C(=O)O)C(=O)O)C(=O)O)C(=O)N[C@H](C(N)=O)[C@@H](C)O` [Chem. 15, N^ε28-[(4S)-4-carboxy-4-[[(4S)-4-carboxy-4-[[(4S)-4-carboxy-4-(17-carboxyheptadecanoylamino)butanoyl]amino]butanoyl]amino]butanoyl]-[Aib2,Leu10,Ala16,Arg20,Ile27,Lys28]-Glucagon amide] (HELM PEPTIDE1{H.[Aib].Q.G.T.F.T.S.D.L.S.K.Y.L.D.A.R.R.A.R.D.F.V.Q.W.L.I.K.T.[am]}|PEPTIDE2{[O=C(O)CCCCCCCCCCCCCCCCC(=O)[*:2]].[gGlu].[gGlu].[gGlu]}$PEPTIDE1,PEPTIDE2,28:R3-4:R2$$$V2.0), the figures for the EC50 in data set [3] and in data set [2] were 7 pM and 4 pM, respectively.
